From US11235001B2, “RUNX inhibitor” (KYOTO UNIVERSITY, priority 2016, dated 2022)
Like-named read-outs stand apart in the source and are kept apart here.

How the values were obtained:
BCR-ABL gene = assay: qRT-PCR of BCR-ABL gene in CML and PhALL cells; format: cell-based, human; conditions: 3 μM or 1 μM, 6 hours
Description: A total RNA was isolated with RNeasy mini kit (Qiagen) and reverse transcribed with Reverse script kit (TOYOBO) to generate cDNA. Real-time quantitative polymerase chain reaction (PCR) was carried out with 7500 Real-Time PCR System (Applied Biosystems) according to the manufacturer's instructions. Results were normalized to GAPDH levels. Relative expression levels were calculated using the 2-ΔΔCt method.
To BV173 cells, MYL cells, SU-Ph2 cells, and SU/SR cells, 3 μM or 1 μM of Chb-M′ was administered. After 6 hours, a total RNA was extracted from the cells, and then subjected to qRT-PCR (see the above-described “Real-time quantitative PCR (qRT-PCR)”) to quantify the expression levels of BCR-ABL gene. As a control, DMSO was administered. In the figures, the expression levels are shown as values relative to the mRNA level of p210BCR-ABL or the mRNA level of p190BCR-ABL in the DMSO (control)-administered group.

A549 cells = assay: Xenograft lung cancer mouse model (A549); format: in vivo
[1] = test system: HUVEC (human umbilical vein endothelial cell line); assay: Proliferation of HUVEC; format: cell-based
p53, p21, PUMA, and BAX = assay: Western blotting of apoptosis-related factors in lung adenocarcinoma cells; format: cell-based, human; conditions: A549 cells and LU99A cells, 1 μM, 24 hours
Description: Cells were washed twice with ice cold phosphate-buffered saline (PBS) and harvested in protein lysis buffer [50 mM Tris (pH 7.4), 100 mM NaCl, 0.1 mM EDTA, 1 mM phenylmethylsulfonyl fluoride, 1 mM β-glycerophosphate, 2.5 mM sodium pyrophosphate, 1 mM Na3VO4, lx protease inhibitor (Roche) and PhosSTOP (Roche)]. Whole cell extracts were separated by SDS-polyacrylamide gel electrophoresis (SDS-PAGE) and electrotransferred onto polyvinylidene difluoride membranes. […] Blots were detected using Chemi-Lumi One Super (nacalai tesque, Inc.) and ChemiDoc™ XRS+ Imager (Bio-Rad Laboratories, Inc.), as recommended by the manufacturers. Protein levels were quantified with Image Lab Software (Bio-Rad Laboratories, Inc.).
To A549 cells and LU99A cells, 1 μM Chb-M′ was administered. After 24 hours, the expression levels of apoptosis-related factors (p53, p21, PUMA, and BAX) were evaluated by the Western blotting method (see the above-described “Immunoblotting”). […]

DU-145 cells = conditions: read-out: IC50 (μM) in DU-145 cells; DU-145 (androgen-independent), 48 hours
SU-Ph2 cells = assay: Cell growth inhibition assay, SU-Ph2 cells; format: cell-based, human; conditions: SU-Ph2, 48 hours
[2] = test system: medulloblastoma cell line DAOY; conditions: DAOY (SHH, TP53-mutated), 48 hours
[3] = test system: BCL11A, TRIM24, p21, BAX, PUMA, MDM2, PARP, cleaved caspase-3; assay: Immunoblotting of p53 pathway and apoptosis proteins in MV4-11 cells; format: cell-based, human; conditions: 1 μM, 24 hours
Description: Cells were washed twice with ice cold phosphate-buffered saline (PBS) and harvested in protein lysis buffer [50 mM Tris (pH 7.4), 100 mM NaCl, 0.1 mM EDTA, 1 mM phenylmethylsulfonyl fluoride, 1 mM β-glycerophosphate, 2.5 mM sodium pyrophosphate, 1 mM Na3VO4, lx protease inhibitor (Roche) and PhosSTOP (Roche)]. Whole cell extracts were separated by SDS-polyacrylamide gel electrophoresis (SDS-PAGE) and electrotransferred onto polyvinylidene difluoride membranes. Membranes were probed with the following antibodies: anti-Ctip1 antibody (Abcam, ab19487), anti-TRIM24 antibody (Bethyl Laboratories, Inc), anti-RUNX1 antibody (A-2), anti-GAPDH (FL-335), anti-p21 (C-19), anti-Bax (N-20) antibodies (Santa Cruz Biotechnology, Inc.), anti-RUNX2, anti-RUNX3, anti-p53 antibodies (Cell Signaling Technology), anti-CBFβ antibody (FL-182, Santa Cruz Biotechnology, Inc.), anti-cleaved caspase-3 antibody (5A1E, Cell Signaling Technology), anti-PARP antibody (46D11, Cell Signaling Technology). For secondary antibodies, anti-rabbit IgG, or anti-mosue IgG HRP-linked antibodies (Cell Signaling Technology) were used. Blots were detected using Chemi-Lumi One Super (nacalai tesque, Inc.) and ChemiDoc™ XRS+ Imager (Bio-Rad Laboratories, Inc.), as recommended by the manufacturers. Protein levels were quantified with Image Lab Software (Bio-Rad Laboratories, Inc.).
Briefly, MV4-11 cells were treated with 1 μM Chb-M′ or Chb-50 for 24 hours. The treated cells were dissolved in the protein lysis buffer. Whole cell extracts were resolved by SDS-polyacrylamide gel electrophoresis (SDS-PAGE) and transferred onto polyvinylidene difluoride membranes. The membranes were probed with each antibody. Blots were detected and quantified. As a control, the cells treated with DMSO were used.

ABC-1 = assay: Cell viability, lung adenocarcinoma ABC-1; format: cell-based, human; conditions: ABC-1 (EGFR wild-type p53-mutated), 48 hours
CD62E (E-selectin) = assay: FACS of cell surface CD62E (E-selectin) in HUVEC; format: cell-based, human; conditions: 1 μM, 24 hours
Description: Using HUVEC, changes in expression levels of E-selectin by the RUNX inhibitor and RUNX knockdown were analyzed by FACS (fluorescence-activated cell sorter). To HUVEC, 1 μM of Chb-M′ was administered. After 24 hours, different antibodies were used for immunostaining and changes in the cell surface expression of CD62E (E-selectin) were measured. As a control, DMSO was administered. In addition, HUVEC in which RUNX1 gene expression was knockdown by sh_RUNX1 #2 were immunostained using different antibodies to measure changes in the cell surface expression of CD62E (E-selectin). As a control, the cells were knockdown by a siRNA targeting luciferase (sh_Luc.). As the antibodies, an anti-human CD62E (E-selectin) antibody (manufactured by eBioscience) and an isotype antibody (mouse IgG1) of anti-human CD62E (E-selectin) antibody (manufactured by eBioscience) were used.

HL60 = conditions: HL60, p53null; for IC50: 48 hours

CN(C)CCCNC(=O)c1cc(NC(=O)c2cc(NC(=O)c3cc(NC(=O)c4cc(NC(=O)CCCNC(=O)c5nc(NC(=O)c6nc(NC(=O)c7cc(NC(=O)c8nc(NC(=O)CCNC(=O)CCCc9ccc(N(CCCl)CCCl)cc9)cn8C)cn7C)cn6C)cn5C)cn4C)cn3C)cn2C)cn1C [Chb-M′]
mRNA level of p210BCR-ABL (BCR-ABL gene; BV173 cells): decreased
mRNA level of p210BCR-ABL (BCR-ABL gene; MYL cells): decreased
mRNA level of p190BCR-ABL (BCR-ABL gene; SU-Ph2 cells): decreased
mRNA level of p190BCR-ABL (BCR-ABL gene; SU/SR cells): decreased
Effect on the lung cancer model (A549 cells; A549 xenograft): inhibited the growth
H&E staining of lung tissue (lung cancer cells in pulmonary alveoli) (A549 cells; day 14 after transplantation): rather diminished
Brightness of luciferase (IVIS), lung (A549 cells; day 14 after transplantation, after 2 administrations): rather weakened
Bioluminescence signal intensity vs DMSO or gefitinib (A549 cells; day 21 after transplantation): far lower
Brightness of luciferase (IVIS), lung (A549 cells; day 21 after transplantation, after total 4 administrations): further weakened
Lengthening of overall survival periods (A549 cells; mice with gefitinib-resistant A549, 320 μg/kg IV twice a week from day 7): about 2 times
IC50 [1]: ≥ 50000 nM
p53 and p21 and apoptotic factors PUMA and BAX (protein) (p53, p21, PUMA, and BAX): enhanced
CI (Fa = 0.5) (KG1a; p53null, concomitant use of Chb-M′ and PRIMA-1, Chou-Talalay, CI<1 synergism): 2.01
IC50 (KG1a; read-out: IC50 (μM) of Chb-M′ in concomitant use with PRIMA-1 (5 μM), p53null, 48 hours, with 5 μM PRIMA-1): > 100 µM
IC50 (KG1a; read-out: IC50 (μM) of Chb-M′ single agent administration, p53null, 48 hours): > 100 µM
IC50 (DU-145 cells): 1.82 µM
IC50 compared with that of imatinib (SU-Ph2 cells): lower IC50 values
IC50 (UF1 (p53Null); culture time 48 hours): 1750 nM
IC50 (UF1 (p53Null); culture time 72 hours): 674 nM
IC50 [2]: 812 nM
Cleaved form of PARP and cleaved caspase-3 (apoptosis) [3]: emergence
Protein expression levels of p53 and downstream proteins (p21, BAX) [3]: increased
Protein expression levels of suppressors of p53 (BCL11A and TRIM24) [3]: reduced
IC50 compared with the EGFR inhibitor (gefitinib) (ABC-1): lower IC50 values
Cell surface expression of E-selectin (FACS) (CD62E (E-selectin)): decrease
IC50 (NB4 (p53MT); culture time 48 hours): 357 nM
IC50 (NB4 (p53MT); culture time 72 hours): 44.6 nM
CI (Fa = 0.5) (HL60; concomitant use of Chb-M′ and PRIMA-1, Chou-Talalay, CI<1 synergism): 1.10
IC50 (HL60; read-out: IC50 (μM) of Chb-M′ in concomitant use with PRIMA-1 (5 μM), with 5 μM PRIMA-1): 11.7 µM
IC50 (HL60; read-out: IC50 (μM) of Chb-M′ single agent administration): 11.4 µM
